Results published in ChEMBL document CHEMBL1201862, “PubChem BioAssay data set” (2004).
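Cultured in 96-well plates, cells were exposed to test compound for 48 hours across five concentrations. The concentration for 50% growth inhibition is given as GI50.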 Active and inactive are the calls of the source. Rule as the data show it: active = GI50 up to about 1.1 µM and inactive = higher.

How the values were obtained:
Assay in all cases: NCI-60 cell line screen, 48 h
[1] = system: HCT-116
[2] = system: NCI/ADR-RES
[3] = system: IGROV-1
[4] = system: SF-539
[5] = system: SR
[6] = system: HOP-62
[7] = system: KM12
[8] = system: HT-29
[9] = system: A549
[10] = system: PC-3
[11] = system: NCI-H460
[12] = system: M14
[13] = system: CAKI-1
[14] = system: OVCAR-8
[15] = system: Malme-3M
[16] = system: BT-549
[17] = system: SNB-19
[18] = system: MDA-MB-231
[19] = system: ACHN
[20] = system: HOP-92

| Structure (SMILES) | GI50 [1] | GI50 [2] | GI50 [3] | GI50 [4] | GI50 [5] | GI50 [6] | GI50 [7] | GI50 [8] | GI50 [9] | GI50 [10] | GI50 [11] | GI50 [12] | GI50 [13] | GI50 [14] | GI50 [15] | GI50 [16] | GI50 [17] | GI50 [18] | GI50 [19] | GI50 [20] |
| --- | --- | --- | --- | --- | --- | --- | --- | --- | --- | --- | --- | --- | --- | --- | --- | --- | --- | --- | --- | --- |
| O=C(O)c1cc(-c2ccc3cc(O)c(O)cc3c2)ccc1O | > 12.5 µM (inactive) | > 12.5 µM (inactive) | > 12.5 µM (inactive) | > 12.5 µM (inactive) | > 12.5 µM (inactive) | > 12.5 µM (inactive) | > 12.5 µM (inactive) | > 12.5 µM (inactive) | > 12.5 µM (inactive) | > 12.5 µM (inactive) | > 12.5 µM (inactive) | > 12.5 µM (inactive) | > 12.5 µM (inactive) | > 12.5 µM (inactive) | > 12.5 µM (inactive) | > 12.5 µM (inactive) | > 12.5 µM (inactive) | > 12.5 µM (inactive) | > 12.5 µM (inactive) |  |
| Nc1ccc(I)cn1 | > 100 µM (inactive) | > 100 µM (inactive) | > 100 µM (inactive) |  | > 100 µM (inactive) | > 100 µM (inactive) | > 100 µM (inactive) | > 100 µM (inactive) | > 100 µM (inactive) | > 100 µM (inactive) | > 100 µM (inactive) | > 100 µM (inactive) | > 100 µM (inactive) | > 100 µM (inactive) | > 100 µM (inactive) | > 100 µM (inactive) | > 100 µM (inactive) | > 100 µM (inactive) | > 100 µM (inactive) |  |
| COc1ccc(/C=C2\CCC(C)c3c2nc(N)c(C#N)c3-c2ccc(OC)c(OC)c2)cc1OC (stereo not given) | 8.81 µM (inactive) | 6.73 µM (inactive) | 15.1 µM (inactive) | 27.4 µM (inactive) |  | 2.05 µM (inactive) | 7.6 µM (inactive) | 6.25 µM (inactive) |  | 2.92 µM (inactive) |  | 32.3 µM (inactive) | 58.5 µM (inactive) | 9.82 µM (inactive) | 16.5 µM (inactive) | 8 µM (inactive) | 72.4 µM (inactive) | 9.89 µM (inactive) | 15.7 µM (inactive) |  |
| CC(=O)O[C@H]1C(=O)[C@@]2(C)[C@H]([C@H](OC(=O)c3ccccc3)[C@]3(O)C[C@H](OC(=O)[C@H](O)[C@@H](NC(=O)c4ccc(N)cc4)c4ccccc4)C(C)=C1C3(C)C)[C@]1(OC(C)=O)CO[C@@H]1C[C@@H]2O | < 0.005 µM (active) | 15.3 µM (inactive) | 0.014 µM (active) | < 0.005 µM (active) | < 0.005 µM (active) | 0.0253 µM (active) | < 0.005 µM (active) | < 0.005 µM (active) | 0.00847 µM (active) | < 0.005 µM (active) | < 0.005 µM (active) | 0.0188 µM (active) | 4.66 µM (inactive) | 0.0105 µM (active) |  | 0.0384 µM (active) | 0.00675 µM (active) | 0.22 µM (active) | 0.711 µM (active) | 35.1 µM (inactive) |
| COC(=O)/C(=N\NC(=S)NN)C(C(=O)OC)C(=O)C(=O)Nc1cccc(C(F)(F)F)c1 (stereo not given) | > 100 µM (inactive) | > 100 µM (inactive) | > 100 µM (inactive) | > 100 µM (inactive) |  | > 100 µM (inactive) | > 100 µM (inactive) | > 100 µM (inactive) | > 100 µM (inactive) | > 100 µM (inactive) | > 100 µM (inactive) | > 100 µM (inactive) | > 100 µM (inactive) | > 100 µM (inactive) | > 100 µM (inactive) | > 100 µM (inactive) | > 100 µM (inactive) | > 100 µM (inactive) | > 100 µM (inactive) | > 100 µM (inactive) |
| N#Cc1c2c([nH]c(=O)c1C#N)CCCC2 | > 100 µM (inactive) | > 100 µM (inactive) | > 100 µM (inactive) | > 100 µM (inactive) |  |  | > 100 µM (inactive) | > 100 µM (inactive) | > 100 µM (inactive) | > 100 µM (inactive) | > 100 µM (inactive) | > 100 µM (inactive) | > 100 µM (inactive) | > 100 µM (inactive) | > 100 µM (inactive) | > 100 µM (inactive) | > 100 µM (inactive) | > 100 µM (inactive) | > 100 µM (inactive) | 79.1 µM (inactive) |
| COC(=O)[C@@H]1[C@H](O)CC[C@H]2[C@@]1(C)CC[C@@H](C)[C@]2(COC(C)=O)CC(=O)c1ccoc1 | > 50 µM (inactive) | > 50 µM (inactive) | > 50 µM (inactive) | > 50 µM (inactive) | > 50 µM (inactive) |  | > 50 µM (inactive) | > 50 µM (inactive) | > 50 µM (inactive) | > 50 µM (inactive) | > 50 µM (inactive) | > 50 µM (inactive) | > 50 µM (inactive) | > 50 µM (inactive) |  | > 50 µM (inactive) | > 50 µM (inactive) | > 50 µM (inactive) | > 50 µM (inactive) | > 50 µM (inactive) |
| C/C(CC(O)(C(F)(F)F)C(F)(F)F)=N\N | > 10 µM (inactive) | > 10 µM (inactive) | > 10 µM (inactive) | > 10 µM (inactive) |  | > 10 µM (inactive) | > 10 µM (inactive) | > 10 µM (inactive) | > 10 µM (inactive) | > 10 µM (inactive) | > 10 µM (inactive) | > 10 µM (inactive) | > 10 µM (inactive) | > 10 µM (inactive) | > 10 µM (inactive) | > 10 µM (inactive) | > 10 µM (inactive) | > 10 µM (inactive) | > 10 µM (inactive) | > 10 µM (inactive) |
| CC(C)=C[C@H]1CCC2(OCCO2)[C@]1(C)COCc1ccccc1 | 29.9 µM (inactive) | 36.8 µM (inactive) |  | 21.7 µM (inactive) |  |  | 33.7 µM (inactive) |  | 33.3 µM (inactive) | 39.9 µM (inactive) | 22.3 µM (inactive) | 33.3 µM (inactive) | 32 µM (inactive) | 38.6 µM (inactive) | 23.9 µM (inactive) | 42.7 µM (inactive) | 37.7 µM (inactive) | 19.7 µM (inactive) | 34.4 µM (inactive) |  |
| Cc1ccc2c(c1)-c1nc(N)c(C#N)c(-c3ccccc3)c1CCS2(=O)=O | > 100 µM (inactive) | 38.5 µM (inactive) | 31.3 µM (inactive) |  |  | 30.5 µM (inactive) | > 100 µM (inactive) | > 100 µM (inactive) | 55 µM (inactive) | 49.2 µM (inactive) | 75.2 µM (inactive) | > 100 µM (inactive) | 49.3 µM (inactive) | 23.1 µM (inactive) | 23.8 µM (inactive) | 36.4 µM (inactive) | 23.6 µM (inactive) | 37 µM (inactive) | 38.5 µM (inactive) | 26.4 µM (inactive) |
| S=C1CSc2c(cnc3ccccc23)N1 | > 100 µM (inactive) | > 100 µM (inactive) | > 100 µM (inactive) |  | > 100 µM (inactive) | > 100 µM (inactive) | > 100 µM (inactive) | > 100 µM (inactive) | > 100 µM (inactive) | 68.4 µM (inactive) | 56.6 µM (inactive) | > 100 µM (inactive) | 78.7 µM (inactive) | 65.9 µM (inactive) | > 100 µM (inactive) | 71.4 µM (inactive) | > 100 µM (inactive) | > 100 µM (inactive) | > 100 µM (inactive) |  |
| COC(=O)CC(c1ccccc1)C(C#N)(OP1(=O)OC(c2ccccc2)C(C)N1C)c1ccccc1 (stereo not given) | 48.4 µM (inactive) | 50.5 µM (inactive) | 71.9 µM (inactive) |  |  | > 100 µM (inactive) | 35 µM (inactive) | 46.8 µM (inactive) | 35.2 µM (inactive) | 35.8 µM (inactive) | 41.1 µM (inactive) | 60 µM (inactive) | 72.1 µM (inactive) | 48 µM (inactive) | 56.1 µM (inactive) | 64.4 µM (inactive) | 73.5 µM (inactive) | > 100 µM (inactive) | 39.4 µM (inactive) | 94 µM (inactive) |
| C=C1C[C@@H]2O[C@H]3[C@H]4[C@@H](C[C@@H](C)[C@@H](OC(C)=O)[C@H]42)[C@@H](C)CO[C@@]3(C)[C@H](OC(=O)CCCCCCC)C[C@H]1O | 16.5 µM (inactive) | 15.9 µM (inactive) | 17.5 µM (inactive) | 23.4 µM (inactive) | 15.8 µM (inactive) | 17.4 µM (inactive) | 16.7 µM (inactive) | 20.1 µM (inactive) | 18.2 µM (inactive) | 15.3 µM (inactive) | 16.1 µM (inactive) | 20 µM (inactive) | 14.8 µM (inactive) | 16.2 µM (inactive) |  | 17.2 µM (inactive) | 16.7 µM (inactive) | 13.8 µM (inactive) | 20.7 µM (inactive) | 15.2 µM (inactive) |
| CCOC(=O)c1c[nH]c2c(Sc3ccccc3)nccc2c1=O | 73.6 µM (inactive) | > 100 µM (inactive) | 21.7 µM (inactive) | 77.8 µM (inactive) |  | > 100 µM (inactive) | 44.6 µM (inactive) | 97.5 µM (inactive) | 87.5 µM (inactive) | > 100 µM (inactive) | > 100 µM (inactive) | > 100 µM (inactive) | 41.3 µM (inactive) | > 100 µM (inactive) |  | 30.7 µM (inactive) | > 100 µM (inactive) | 53.1 µM (inactive) | > 100 µM (inactive) | 46.9 µM (inactive) |
| Cc1cc(O)c2c(c1O)C(=O)c1cccc(O)c1C2=O [ISLANDICIN] | > 100 µM (inactive) | > 100 µM (inactive) | > 100 µM (inactive) | > 100 µM (inactive) |  | > 100 µM (inactive) | > 100 µM (inactive) | > 100 µM (inactive) | > 100 µM (inactive) | > 100 µM (inactive) | > 100 µM (inactive) | > 100 µM (inactive) | > 100 µM (inactive) | > 100 µM (inactive) |  | > 100 µM (inactive) | > 100 µM (inactive) | > 100 µM (inactive) | > 100 µM (inactive) | > 100 µM (inactive) |
